Measurements reported in patent US20230075856A1, “CYCLIC SULFAMIDE COMPOUNDS FOR TREATMENT OF HBV” (Assembly Biosciences, Inc., priority 2018, published 2023).

Each molecule was assayed on HBV viral load production from HepAD38 cells (assay: Viral production from HepAD38 cells: viral load in supernatant by qPCR of the HBV core sequence). Details: 5 days incubation, qPCR of supernatant HBV DNA vs DMSO control, read-out: viral load lowering EC50 (Activity).
Type: cell-based
Protocol: Assay Measuring Activity of Test Compounds on Viral Production from HepAD38 Cells
HepAD38 cells grown in a T-150 flask (Corning, cat #: 430825) with Growth Medium (DMEM/F12 […] (Hyclone, cat #: SH30023.02), 1× Pen/Strep (Invitrogen, cat #: 15140-122), 10% FBS (Tissue Culture Biologics, cat #: 101), […] G418 (Alfa Aesar, cat #: J62671), 1 μg/mL Tetracycline (Teknova, cat #: T3320)) were detached with 0.25% trypsin-EDTA (Invitrogen, cat #: 25200-056). Tetracycline-free treatment medium (15 mL DMEM/F12 (1:1) 1× Pen/step, with 2% FBS, Tet-system approved (Clontech, cat #: 631106) were then added to mix, transferred into a 50 ml conical tube (Falcon, cat #: 21008-918,) and spun at 1300 rpm for 5 min. Pelleted cells were then re-suspended/washed with 50 mL of 1×DPBS (Invitrogen, cat #: 14190-136) 2 times and 50 mL treatment medium twice. HepAD38 cells were then re-suspended with 10 mL of treatment medium, syringed and counted. Wells of 96-well clear bottom TC plate (Corning, cat #: 3904,) were seeded at 50,000 cells/well in 180 μL of treatment medium, and 20 μL of either 10% DMSO (Sigma, cat #: D4540) as controls or a 10× solution of test compounds in 10% DMSO in treatment media was added for a final compound concentration starting at 10 μM, and plates were incubated in 5% CO2 incubator at 37° C. for 5 days.
Subsequently viral load production was assayed by quantitative PCR (qPCR) of the HBV core sequence. PCR reaction mixture containing forward primers HBV-f 5′-CTGTGCCTTGGGTGGCTIT-3′ (IDT DNA), Reverse primers HBV-r 5′-[…]-3′ (IDT DNA), Fluorescent TaqMan™ Probes HBV-probe 5′-FAM/AGCTCCAAA/ZEN/[…]/3IABkFQ-3′ (IDT DNA), 10 μL/well of PerfeCTa® qPCR ToughMix® (Quanta Biosciences, Cat #: 95114-05K), and 6 μL/well of DEPC water (Alfa Aesar, cat #: J62087) was prepared. Four μL of supernatant was added to 16 μL of the reaction mixture in a qPCR plate (Applied Biosytems, Cat #: 4309849), sealed with a film (Applied Biosystems, Cat #: 4311971), centrifuged for a few seconds, and subsequently run on an Applied Biosystems VIIA7. The PCR mixture was incubated at 45° C. for 5 min, then 95° C. for 10 min, followed by 40 cycles of 10 seconds at 95° C. and 20 seconds at 60° C. Viral load was quantified against known HBV DNA standards by using ViiA™ 7 Software. Viral load in the supernatant from wells with treated cells were compared against viral load in supernatant from DMSO control wells (≥3 per plate). Cell viability assay was performed with CellTiter-Glo Luminescent Cell Viability Assay (Promega, cat #: G7573) with modification. Mixed appropriate amount of CellTiter-Glo (CTG) 1×DPBS in a 1:1 ratio, added 100 uL of the mixture to each well followed completely removal of all supernatant in each well without touching cell surface. Incubated the plate at room temperature for 10 min on an orbital shaker, and then read the plate with a plate reader (TECAN M1000 or Envision). EC50 or CC50 values were calculated through curve-fitting of the four-parameter nonlinear-logistic-regression model (GraphPad Prism or Dotmatics). CC50 values were all >10 μM.

How did the EC50 turn out when `Cc1cn(-c2ccccc2)nc1CNC(=O)C1CC(C(=O)Nc2ccc(F)c(C#N)c2)N(C)S(=O)(=O)N1` (single isomer, unassigned) [1134-ISOMER-B, N3-(3-cyano-4-fluoro-phenyl)-2-methyl-N5-[(4-methyl-1-phenyl-pyrazol-3-yl)methyl]-1,1-dioxo-1,2,6-thiadiazinane-3,5-dicarboxamide] was run?
The EC50 was < 50 nM.

Which EC50 does the source give for `CN1C(C(=O)Nc2ccc(F)c(Cl)c2)CC(C(=O)NCc2sc(-c3ccccc3F)nc2C(F)(F)F)NS1(=O)=O` (single isomer, unassigned) [1082-ISOMER-B, N3-(3-chloro-4-fluoro-phenyl)-N5-[[2-(2-fluorophenyl)-4-(trifluoromethyl)thiazol-5-yl]methyl]-2-methyl-1,1-dioxo-1,2,6-thiadiazinane-3,5-dicarboxamide] here?
Its EC50 is 50 to 100 nM.

For `CN1C(C(=O)Nc2ccc(F)c(Cl)c2)CC(C(=O)NC2CCN(c3cc(Cl)ccn3)CC2)NS1(=O)=O` (single isomer, unassigned) [Compound 974-ISOMER-B, N3-(3-chloro-4-fluoro-phenyl)-N5-[1-(4-chloro-2-pyridyl)-4-piperidyl]-2-methyl-1,1-dioxo-1,2,6-thiadiazinane-3,5-dicarboxamide], which EC50 is on record?
The EC50 was 50 to 100 nM.

Same assay, conditions: Hepatitis B virus, HePAD38, 120 h, 5 days incubation, qPCR of supernatant HBV DNA vs DMSO control, read-out: viral load lowering EC50 (Activity)

With `CN1C(C(=O)Nc2ccc(F)c(Cl)c2)CC(C(=O)NCc2cnc(C(F)(F)F)s2)NS1(=O)=O` (single isomer, unassigned) [Compound 498-ISOMER-A, N3-(3-chloro-4-fluoro-phenyl)-2-methyl-1,1-dioxo-N5-[[2-(trifluoromethyl)thiazol-5-yl]methyl]-1,2,6-thiadiazinane-3,5-dicarboxamide] as the molecule, how does the EC50 read?
Its EC50 is 100 to 10000 nM.

`Cc1csc(CNC(=O)C2CC(C(=O)Nc3ccc(F)c(C#N)c3)N(C)S(=O)(=O)N2)n1` (stereo not drawn) [Compound 828] was tested. Which EC50 did it give?
The EC50 was 100 to 10000 nM.

`CN1C(C(=O)Nc2ccc(F)c(Cl)c2)CC(C(=O)NCc2cc(-c3ccc(F)cc3)n(C)n2)NS1(=O)=O` (single isomer, unassigned) [1151-ISOMER-A, N3-(3-chloro-4-fluoro-phenyl)-N5-[[5-(4-fluorophenyl)-1-methyl-pyrazol-3-yl]methyl]-2-methyl-1,1-dioxo-1,2,6-thiadiazinane-3,5-dicarboxamide] was tested. Which EC50 did it give?
The EC50 was < 50 nM.

How did the EC50 turn out when `Cc1nc(-c2ccc(F)cc2F)sc1CNC(=O)C1CC(C(=O)Nc2ccc(F)c(Cl)c2)N(C)S(=O)(=O)N1` (single isomer, unassigned) [1083-ISOMER-A, N3-(3-chloro-4-fluoro-phenyl)-N5-[[2-(2,4-difluorophenyl)-4-methyl-thiazol-5-yl]methyl]-2-methyl-1,1-dioxo-1,2,6-thiadiazinane-3,5-dicarboxamide] was run?
Its EC50 is < 50 nM.

With `Cc1nc(CNC(=O)C2CC(C(=O)Nc3ccc(F)c(Cl)c3)N(C)S(=O)(=O)N2)sc1-c1ccccc1Cl` (stereo not drawn) [Compound 1071] as the molecule, how does the EC50 read?
The EC50 was < 50 nM.

`Cc1nc(-c2ccccc2Cl)sc1[C@@H](NC(=O)C1CC(C(=O)Nc2ccc(F)c(Cl)c2)N(C)S(=O)(=O)N1)c1ccccc1` (single isomer, unassigned) [1100-ISOMER-B] was tested. Which EC50 did it give?
The EC50 was 100 to 10000 nM.

For `CN1C(C(=O)Nc2ccc(F)c(Cl)c2)CC(C(=O)NC2CCN(c3ccnc(Cl)c3)C2)NS1(=O)=O` (stereo not drawn) [Compound 1055], which EC50 is on record?
Its EC50 is < 50 nM.

How did the EC50 turn out when `Cc1nc2c(s1)C(NC(=O)C1CC(C(=O)Nc3ccc(F)c(Cl)c3)N(C)S(=O)(=O)N1)CCC2` (stereo not drawn) [Compound 918] was run?
Its EC50 is < 50 nM.

Which EC50 does the source give for `CN1C(C(=O)Nc2ccc(F)c(Cl)c2)CC(C(=O)NC2CCCc3nc(-c4ccc(OCCN5CCCCC5)cc4)sc32)NS1(=O)=O` (single isomer, unassigned) [Compound 948-ISOMER-A] here?
Its EC50 is < 50 nM.

Which EC50 does the source give for `Cc1nc(-c2ccccc2F)sc1[C@H](NC(=O)C1CC(C(=O)Nc2ccc(F)c(Cl)c2)N(C)S(=O)(=O)N1)c1ccccc1` (single isomer, unassigned) [1101-ISOMER-A] here?
Its EC50 is < 50 nM.

Which EC50 does the source give for `Cc1nc(CNC(=O)C2CC(C(=O)Nc3ccc(F)c(Cl)c3)N(C)S(=O)(=O)N2)sc1Br` (stereo not drawn) [Compound 1069] here?
The EC50 was < 50 nM.

How did the EC50 turn out when `CN1C(C(=O)Nc2ccc(F)c(Cl)c2)CC(C(=O)NCc2cnc(N)s2)NS1(=O)=O` (stereo not drawn) [Compound 1132] was run?
Its EC50 is 100 to 10000 nM.

Which EC50 does the source give for `CN1C(C(=O)Nc2ccc(F)c(Cl)c2)CC(C(=O)NCc2nn(-c3ccccc3)c3ccccc23)NS1(=O)=O` (stereo not drawn) [Compound 1072] here?
The EC50 was < 50 nM.

With `CN1C(C(=O)Nc2ccc(F)c(Cl)c2)CC(C(=O)NCc2ccc(C(F)(F)F)cc2)NS1(=O)=O` (stereo not drawn) [Compound 481] as the molecule, how does the EC50 read?
Its EC50 is 50 to 100 nM.

With `CN1C(C(=O)Nc2ccc(F)c(Cl)c2)CC(C(=O)NCc2nn(-c3ccccc3)c3ccccc23)NS1(=O)=O` (single isomer, unassigned) [1072-ISOMER-A, N3-(3-chloro-4-fluoro-phenyl)-2-methyl-1,1-dioxo-N5-[(1-phenylindazol-3-yl)methyl]-1,2,6-thiadiazinane-3,5-dicarboxamide] as the molecule, how does the EC50 read?
Its EC50 is < 50 nM.

How did the EC50 turn out when `COc1ccnc(N2CCC(NC(=O)C3CC(C(=O)Nc4ccc(F)c(Cl)c4)N(C)S(=O)(=O)N3)CC2)c1` (stereo not drawn) [Compound 972] was run?
The EC50 was < 50 nM.

With `CN1C(C(=O)Nc2ccc(F)c(Cl)c2)CC(C(=O)NCc2nc(C(F)(F)F)cs2)NS1(=O)=O` (stereo not drawn) [Compound 1202] as the molecule, how does the EC50 read?
The EC50 was 100 to 10000 nM.

`Cc1csc(CNC(=O)C2CC(C(=O)Nc3ccc(F)c(Cl)c3)N(C)S(=O)(=O)N2)n1` (stereo not drawn) [Compound 686] was tested. Which EC50 did it give?
The EC50 was 50 to 100 nM.

For `Cc1ccccc1CNC(=O)C1CC(C(=O)Nc2ccc(F)c(Cl)c2)N(C)S(=O)(=O)N1` (stereo not drawn) [Compound 817], which EC50 is on record?
The EC50 was < 50 nM.

With `CN1C(C(=O)Nc2ccc(F)c(Cl)c2)CC(C(=O)NCc2sc(-c3ccccc3)nc2C(F)(F)F)NS1(=O)=O` (stereo not drawn) [Compound 1063] as the molecule, how does the EC50 read?
The EC50 was < 50 nM.

`CN1C(C(=O)Nc2ccc(F)c(Cl)c2)CC(C(=O)Nc2cn(-c3ccccc3)cn2)NS1(=O)=O` (stereo not drawn) [Compound 1116] was tested. Which EC50 did it give?
Its EC50 is 50 to 100 nM.

With `CN1C(C(=O)Nc2ccc(F)c(Cl)c2)CC(C(=O)NCc2csc(Cl)n2)NS1(=O)=O` (stereo not drawn) [Compound 1006] as the molecule, how does the EC50 read?
Its EC50 is 50 to 100 nM.

`CN1C(C(=O)Nc2ccc(F)c(Cl)c2)CC(C(=O)NCc2cnc(-c3cccnc3)s2)NS1(=O)=O` (single isomer, unassigned) [Compound 911-ISOMER-A, N3-(3-chloro-4-fluoro-phenyl)-2-methyl-1,1-dioxo-N5-[[2-(3-pyridyl)thiazol-5-yl]methyl]-1,2,6-thiadiazinane-3,5-dicarboxamide] was tested. Which EC50 did it give?
The EC50 was 100 to 10000 nM.

How did the EC50 turn out when `Cc1nc(-c2ccc(F)cc2F)sc1CNC(=O)C1CC(C(=O)Nc2ccc(F)c(Cl)c2)N(C)S(=O)(=O)N1` (stereo not drawn) [Compound 1083] was run?
The EC50 was < 50 nM.

With `CN1C(C(=O)Nc2ccc(F)c(Cl)c2)CC(C(=O)Nc2cn(C)cn2)NS1(=O)=O` (stereo not drawn) [Compound 494] as the molecule, how does the EC50 read?
Its EC50 is 50 to 100 nM.

`Cc1cn(-c2ccc(F)cc2F)nc1CNC(=O)C1CC(C(=O)Nc2ccc(F)c(Cl)c2)N(C)S(=O)(=O)N1` (single isomer, unassigned) [1144-ISOMER-A, N3-(3-chloro-4-fluoro-phenyl)-N5-[[1-(2,4-difluorophenyl)-4-methyl-pyrazol-3-yl]methyl]-2-methyl-1,1-dioxo-1,2,6-thiadiazinane-3,5-dicarboxamide] was tested. Which EC50 did it give?
The EC50 was < 50 nM.

For `CN1C(C(=O)Nc2ccc(F)c(Cl)c2)CC(C(=O)NCc2cn(-c3ccccc3)cn2)NS1(=O)=O` (single isomer, unassigned) [1145-ISOMER-A, N3-(3-chloro-4-fluoro-phenyl)-2-methyl-1,1-dioxo-N5-[(1-phenylimidazol-4-yl)methyl]-1,2,6-thiadiazinane-3,5-dicarboxamide], which EC50 is on record?
The EC50 was < 50 nM.

`CN1CCC(Oc2ccc(-c3ncc(CNC(=O)C4CC(C(=O)Nc5ccc(F)c(Cl)c5)N(C)S(=O)(=O)N4)s3)cc2)CC1` (stereo not drawn) [Compound 979] was tested. Which EC50 did it give?
The EC50 was < 50 nM.

`CN1C(C(=O)Nc2ccc(F)c(Cl)c2)CC(C(=O)NC2CCN(c3ccccn3)CC2)NS1(=O)=O` (stereo not drawn) [Compound 769] was tested. Which EC50 did it give?
The EC50 was < 50 nM.

`CN1C(C(=O)Nc2ccc(F)c(Cl)c2)CC(C(=O)NCc2cc(-c3ccccc3)on2)NS1(=O)=O` (stereo not drawn) [Compound 1149] was tested. Which EC50 did it give?
Its EC50 is < 50 nM.
